Experimental data reported in US20200222418A1, “USE OF PHENOTHIAZINE DERIVATIVE IN THE TREATMENT OF INFECTION CAUSED BY BACTERIA CARRYING TYPE IV PILI” (priority 2017, published 2020).

System: Nm2C4.3 adhesion to human dermal microvascular endothelial cells (HDMECs)
Assay: Adhesion of pretreated meningococci to endothelial cells
Assay type: cell-based, Neisseria meningitidis
Details: bacteria pre-treated with 30 μM for 30 minutes
Method: Nm2C4.3 grown in suspension were pretreated in the absence or in the presence of 30 μM Trifluoperazine for 30 minutes before adhesion to human dermal microvascular endothelial cells (HDMECs) for 30 minutes. Infection was allowed to proceed for further 30, 60 or 90 minutes before fixation and immunostaining using anti-Nm2C4.3 antibody and Alexa Fluor 633 Phalloidin. (A) Representative fluorescence microscopy showing bacterial colony (white dots) formed at the surface of the endothelial cells. (B) Quantification of the bacterial colonization was performed using Image J software.

## CN1CCN(CCCN2c3ccccc3Sc3ccc(C(F)(F)F)cc32)CC1 [Trifluoperazine]
  adhesion to and colony formation at the endothelial cell surface: did no longer adhere to and/or form bacterial colony
